Data as given in ChEMBL document CHEMBL2375224, “Discovery of aryl-biphenyl-2-ylmethylpiperazines as novel scaffolds for 5-HT(7) ligands and role of the aromatic substituents in binding to the target receptor” (Bioorg Med Chem, 2013).
pKi: −log10 of the molar value.

Biological target: 5-hydroxytryptamine receptor 7 (Homo sapiens, UniProt P34969)
Experiment: Displacement of [3H]-LSD from 5HT7 receptor (unknown origin) expressed in CHOK1 cells
Format: cell-based, CHO-K1

Sequence of 5-hydroxytryptamine receptor 7 (P34969 whole entry): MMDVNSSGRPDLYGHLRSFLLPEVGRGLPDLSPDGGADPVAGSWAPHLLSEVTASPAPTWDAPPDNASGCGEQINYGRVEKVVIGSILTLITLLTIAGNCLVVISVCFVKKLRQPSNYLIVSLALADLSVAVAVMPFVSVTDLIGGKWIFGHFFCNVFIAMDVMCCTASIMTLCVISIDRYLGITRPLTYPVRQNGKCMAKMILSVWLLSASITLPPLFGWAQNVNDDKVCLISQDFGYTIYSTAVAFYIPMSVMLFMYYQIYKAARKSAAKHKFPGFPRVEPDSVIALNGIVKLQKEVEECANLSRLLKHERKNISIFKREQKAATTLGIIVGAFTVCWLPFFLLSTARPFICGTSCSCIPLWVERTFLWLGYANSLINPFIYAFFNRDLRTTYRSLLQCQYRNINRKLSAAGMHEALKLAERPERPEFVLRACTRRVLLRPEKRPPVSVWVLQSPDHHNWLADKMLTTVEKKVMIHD

Row | Structure (SMILES) | pKi
1 | Cc1cccc(N2CCN(Cc3ccccc3-c3ccccc3)CC2)c1 | 5.92
2 | Cc1ccc(N2CCN(Cc3ccccc3-c3ccccc3)CC2)cc1 | 5.56
3 | Cc1ccc(N2CCN(Cc3ccccc3-c3ccccc3)CC2)c(C)c1 | < 5.00
4 | Cc1ccc(C)c(N2CCN(Cc3ccccc3-c3ccccc3)CC2)c1 | < 5.00
5 | Cc1cc(C)cc(N2CCN(Cc3ccccc3-c3ccccc3)CC2)c1 | < 5.00
6 | FC(F)(F)c1cccc(N2CCN(Cc3ccccc3-c3ccccc3)CC2)c1 | 5.78
7 | Fc1cccc(N2CCN(Cc3ccccc3-c3ccccc3)CC2)c1 | < 5.00
8 | Fc1ccc(N2CCN(Cc3ccccc3-c3ccccc3)CC2)cc1 | < 5.00
9 | Clc1ccc(N2CCN(Cc3ccccc3-c3ccccc3)CC2)cc1 | < 5.00
10 | COc1cccc(N2CCN(Cc3ccccc3-c3ccccc3)CC2)c1 | < 5.00
11 | COc1ccc(N2CCN(Cc3ccccc3-c3ccccc3)CC2)cc1 | < 5.00

The next lines start with the values.

Row | pKi | Structure (SMILES)
12 | 7.34 | COc1ccc(-c2ccccc2CN2CCN(c3ccccc3OC)CC2)cc1
13 | 5.73 | COc1ccc(N2CCN(Cc3ccccc3-c3ccccc3)CC2)cc1OC
14 | 5.76 | Cc1ccccc1N1CCN(Cc2ccccc2-c2ccccc2)CC1
15 | < 5.00 | Cc1cccc(N2CCN(Cc3ccccc3-c3ccccc3)CC2)c1C
16 | 6.18 | COc1ccccc1N1CCN(Cc2ccccc2-c2ccccc2F)CC1
17 | 6.53 | COc1ccccc1N1CCN(Cc2ccccc2-c2ccccc2Cl)CC1
18 | 6.66 | COc1ccccc1N1CCN(Cc2ccccc2-c2cccc(Cl)c2)CC1
19 | 6.66 | COc1ccccc1N1CCN(Cc2ccccc2-c2ccc(Cl)cc2)CC1
20 | 6.51 | COc1ccccc1N1CCN(Cc2ccccc2-c2ccccc2C)CC1
21 | 7.37 | COc1ccccc1-c1ccccc1CN1CCN(c2ccccc2OC)CC1
22 | 7.11 | COc1cccc(-c2ccccc2CN2CCN(c3ccccc3OC)CC2)c1
23 | < 5.00 | Fc1ccccc1N1CCN(Cc2ccccc2-c2ccccc2)CC1
24 | < 5.00 | Clc1ccccc1N1CCN(Cc2ccccc2-c2ccccc2)CC1
